Data published in US9351955B2, “Compounds and pharmaceutical compositions thereof for the treatment of cystic fibrosis” (Galapagos NV, priority 2013, dated 2016).
Like-named read-outs stand apart in the source and are kept apart here.

How the values were obtained:
Format in all cases: cell-based
[1] = target: T1, CFTR ΔF508 mutant (Homo sapiens, UniProt P13569, DEL508-508); experiment: YFP-halide influx assay for the CFTR-ΔF508 mutation (384 well, CFBE41o- cells, FDSS/μCell); conditions: forskolin 10.67 μM, fluorescence after 36 seconds, read-out: EC50 measured by YFP-halide influx assay for the CFTR-ΔF508
T1 construct: expressed in transfected cells; host or cells: CFBE41o- (adenoviral transduction)
Procedure, shortened: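 CFBE41o- cells were adenovirally transduced with ΔF508 CFTR and the YFP H148Q/I152L reporter. Cells were then held 24 h at 27 °C or treated 24 h at 37 °C with a CFTR modulator. Iodide-induced quench was recorded for 2 min, and EC50 was derived from 1−F/F0 at 36 s against compound concentration.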

[2] = target: T2, CFTR-S549N (Homo sapiens, UniProt P13569, S549N); experiment: YFP-halide influx assay for the CFTR-S549N; conditions: CFTR-S549N mutant; read-out: EC50 measured by YFP-halide influx assay for the CFTR-S549N
T2 construct: expressed in transfected cells
Text: (§1) The YFP halide influx assay measures the functionality of the cystic fibrosis Transmembrane Conductance regulator (CFTR) channels. The assay is used to evaluate the capacity of compounds to increase the channel opening of existing mutant CFTR channels in the membrane. It makes use of the observation that the yellow fluorescent protein (YFP) variant YFP H148Q, I152L, F47L has its fluorescence substantially quenched by halide ions like Cl^− and I^−. (Galietta et al., 2001)
(§2) For this purpose, HEK293-cells are seeded in 96 well plates. During seeding, the cells are reverse-transfected with plasmid vectors that direct the expression of the CFTR G551D mutant and of the YFP reporter. Cells are incubated at 37° C., 5% CO2 for 24 hours so as to allow for sufficient expression of the CFTR protein.
(§3) The I^−-induced quenching of fluorescence is recorded immediately after injection of I^− for 7 seconds. The capacity of a compound to increase the channel opening is directly correlated with the decrease in fluorescence, and is expressed as (1−(fluorescence after 7 seconds (F)/fluorescence before injection (F0))) and an EC50 can be derived from a (1−F/F0) vs compound concentration plot.
(§4) Similar YHA assays were developed for other channel gating defective or channel conductance defective CFTR mutants to determine effect of compound on channel activity. Examples of mutants are G178R, G1349D, S549N, R117H, R334W. This assay is also used for additional class I CFTR mutants, including G542X, W1282X; class II mutants including N1303K, and for class III mutants including S1251N; or wild-type CFTR.

[3] = target: T3, CFTR-G178R (Homo sapiens, UniProt P13569, G178R); experiment: YFP-halide influx assay for the CFTR-G178R; conditions: read-out: EC50 measured by YFP-halide influx assay for the CFTR-G178R
T3 construct: expressed in transfected cells
Text: as §1, §2, §3, §4

[4] = target: T4, CFTR-G1349D (Homo sapiens, UniProt P13569, G1349D); experiment: YFP-halide influx assay for the CFTR-G1349D; conditions: CFTR-G1349D mutant; read-out: EC50 measured by YFP-halide influx assay for the CFTR-G1349D
T4 construct: expressed in transfected cells
Text: as §1, §2, §3, §4

[5] = target: T5, CFTR-R117H (Homo sapiens, UniProt P13569, R117H); experiment: YFP-halide influx assay for the CFTR-R117H; conditions: CFTR-R117H mutant; read-out: EC50 measured by YFP-halide influx assay for the CFTR-R117H
T5 construct: expressed in transfected cells
Text: as §1, §2, §3, §4

[6] = target: T6, CFTR G551D mutant (Homo sapiens, UniProt P13569, G551D); experiment: YFP-halide influx assay for the CFTR-G551D mutation (HEK293 cells); conditions: read-out: EC50 measured by YFP-halide influx assay for the CFTR-G551D
T6 construct: expressed in transfected cells; host or cells: HEK293 (reverse transfection with plasmids)
Procedure, shortened: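 HEK293 cells reverse-transfected with CFTR G551D and halide-sensitive YFP, expressed 24 h at 37 °C. Iodide-induced fluorescence quench recorded for 7 s after I^− injection; response as 1−F/F0, EC50 from concentration plot.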

[7] = target: T7, CFTR ΔF508 (Homo sapiens, UniProt P13569, DEL508-508); experiment: TECC assay, primary bronchial epithelial cells from CF patients homozygous for CFTR ΔF508
T7 construct: host or cells: primary bronchial epithelial cells from CF patients homozygous for ΔF508, pre-treated with VX809
Method: 7.2.1. Primary Bronchial Epithelial Cells Protocol
The TECC (Tranepithelial Clamp Circuit, EP-design) assay measures the functionality of the cystic fibrosis Transmembrane Conductance regulator (CFTR) by measuring the short circuit current (ISC) generated over the basolateral and apical membrane of lung epithelial cells. In TECC the transepithelial potential PD and transepithelial resistance (Rt) are measured in an open circuit and transformed to ISC using Ohm's law. 24 wells can be measured simultaneously allowing a higher throughput compared to Ussing chambers.
For this purpose, bronchial epithelial cells isolated from CF patients homozygous for the CFTR ΔF508 mutation (hAEC-CF, Epithelix) are plated on type IV collagen-coated Transwell supports (Costar). Human airway epithelia are generated by provision of an air-liquid interface for 21 days to form well-differentiated polarized cultures that resemble in vivo pseudo-stratified ciliated epithelium (Fulcher et al., 2005). In the case of the homozygous ΔF508 CFTR samples, the differentiated cells are treated with 3 μM VX809 (2626 South Loop West, Suite 225, Houston, Tex. 77054 USA, Cat n#51565) to allow sufficient expression of properly folded CFTR protein on the membrane (48 hours basolateral treatment and 24 hours apical treatment), prior to electrophysiological recordings. […] G551D/ΔF508, differentiated cells are used as such for the recordings.
Information on the compounds can be retrieved on the homozygous ΔF508 CFTR samples looking at increased CFTR activity when compounds are added in an acute mode or in a chronic mode. On G551D/ΔF508 CFTR heterozygous samples compounds are added in an acute mode to the differentiated cells.
For the acute mode, for electrophysiological recording, the human airway epithelia are mounted in the TECC heating plate for electrophysiological measurement and kept at 37° C. The epithelia are bathed in a NaCl-Ringer solution (120 mM NaCl, 25 mM NaHCO3, 1.2 mM CaCl2, 1.2 mM MgCl2, 0.8 mM KH2PO4, 0.8 mM K2HPO4, pH 7.4, 5 mM glucose) on both the basolateral and apical sides. Apical amiloride is used to inhibit the endogenous ENaC currents while forkolin is applied on both apical and basolateral side to stimulate CFTR. After forskolin triggering, compounds are added on both sides to test their potential for increasing CFTR gating. Measurements are done during a 20 minute timeframe with recordings every 2 minutes. The increase in ISC is used as a measure for the increased CFTR activity, EC50 values can be generated by measuring impact of different concentrations of compound on ISC on primary cells, for this purpose each transwell is treated with a different compound concentration. Inh-172, an inhibitor specific for CFTR, is used to test the specificity of the tested compounds.
For the chronic mode, the differentiated cells are treated with 3 μM VX809 (2626 South Loop West, Suite 225, Houston, Tex. 77054 USA, Cat n#51565) and potentiator compounds at different concentrations (48 hours basolateral treatment and 24 hours apical treatment), prior to electrophysiological recordings. For electrophysiological recording, the human airway epithelia are mounted in the TECC heating plate for electrophysiological measurement and kept at 37° C. […]

[8] = target: T1, CFTR ΔF508 mutant; experiment: YFP-halide influx assay for the CFTR-ΔF508 mutation (96 well, CFBE41o- cells); conditions: read-out: EC50 measured by YFP-halide influx assay for the CFTR-ΔF508
Text: 6.1. YFP-Halide Influx Assay for the CFTR-ΔF508 Mutation
as §1, with “channels in the cystic fibrosis bronchial epithelium cell line CFBE41o-.” for “channels.”, “open probability” for “channel opening”, “existing” for “existing mutant”, “I152L” for “I152L, F47L”, “2001; Nagai et al., 2002)” for “2001)”
For this purpose, CFBE410-cells are seeded in 96 well plates (6000 CFBE cells/well). One day after seeding, the CFBE cells are transduced with adenoviral vectors that direct the expression of the CFTR ΔF508 mutant and of the YFP reporter. Cells are incubated at 27° C., 5% CO2 for 24 hours so as to allow for the proper folding and migration to the membrane of the CFTR channel or treated with a CFTR modulator during 24 h at 37° C.
as §3, with “[…]” for “I^−-induced”, “(1-(fluorescence” for “(1−(fluorescence”

[9] = HEK293 cells expressing CFTR G551D and YFP reporter, forskolin 10.67 μM

T2 sequence (P13569 whole entry S549N): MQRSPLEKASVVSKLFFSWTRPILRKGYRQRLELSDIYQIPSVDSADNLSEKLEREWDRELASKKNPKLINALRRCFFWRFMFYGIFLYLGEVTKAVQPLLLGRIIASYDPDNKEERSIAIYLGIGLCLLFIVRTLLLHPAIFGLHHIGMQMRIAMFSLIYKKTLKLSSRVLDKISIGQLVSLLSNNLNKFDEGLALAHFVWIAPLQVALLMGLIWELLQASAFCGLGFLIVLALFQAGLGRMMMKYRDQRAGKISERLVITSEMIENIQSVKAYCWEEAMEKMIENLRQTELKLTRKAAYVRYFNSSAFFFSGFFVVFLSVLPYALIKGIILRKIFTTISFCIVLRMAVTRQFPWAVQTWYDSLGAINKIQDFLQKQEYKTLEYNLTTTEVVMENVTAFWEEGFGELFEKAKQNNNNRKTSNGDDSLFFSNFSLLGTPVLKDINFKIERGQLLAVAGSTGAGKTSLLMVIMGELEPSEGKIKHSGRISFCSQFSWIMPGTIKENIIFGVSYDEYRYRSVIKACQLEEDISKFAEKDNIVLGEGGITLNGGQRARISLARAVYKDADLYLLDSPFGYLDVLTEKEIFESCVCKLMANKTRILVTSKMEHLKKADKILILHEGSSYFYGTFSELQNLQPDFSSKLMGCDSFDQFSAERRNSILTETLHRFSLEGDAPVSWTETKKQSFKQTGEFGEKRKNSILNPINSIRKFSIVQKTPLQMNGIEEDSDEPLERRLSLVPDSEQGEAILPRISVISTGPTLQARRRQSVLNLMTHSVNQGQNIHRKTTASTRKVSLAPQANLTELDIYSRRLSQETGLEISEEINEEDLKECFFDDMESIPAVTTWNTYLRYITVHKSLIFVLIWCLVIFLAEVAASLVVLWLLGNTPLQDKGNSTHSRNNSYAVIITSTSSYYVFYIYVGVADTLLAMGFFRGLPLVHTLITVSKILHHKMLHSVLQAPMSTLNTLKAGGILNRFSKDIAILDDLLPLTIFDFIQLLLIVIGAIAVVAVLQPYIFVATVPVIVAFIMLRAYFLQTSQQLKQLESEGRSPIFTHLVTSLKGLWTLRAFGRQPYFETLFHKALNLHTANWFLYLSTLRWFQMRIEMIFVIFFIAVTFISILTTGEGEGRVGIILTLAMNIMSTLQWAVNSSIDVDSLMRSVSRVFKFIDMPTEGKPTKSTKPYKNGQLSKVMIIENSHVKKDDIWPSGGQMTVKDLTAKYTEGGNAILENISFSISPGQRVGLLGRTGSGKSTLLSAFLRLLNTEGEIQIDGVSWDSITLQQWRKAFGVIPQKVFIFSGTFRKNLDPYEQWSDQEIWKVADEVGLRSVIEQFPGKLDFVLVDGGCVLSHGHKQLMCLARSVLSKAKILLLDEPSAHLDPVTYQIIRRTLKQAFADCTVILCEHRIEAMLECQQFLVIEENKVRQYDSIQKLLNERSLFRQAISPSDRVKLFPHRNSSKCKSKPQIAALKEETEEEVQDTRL
T3 sequence (P13569 whole entry G178R): as the sequence (P13569 whole entry S549N) above, with G178R, N549S counted along it
T5 sequence (P13569 whole entry R117H): as the sequence (P13569 whole entry S549N) above, with R117H, N549S counted along it
T4 sequence (P13569 whole entry G1349D): as the sequence (P13569 whole entry S549N) above, with N549S, G1349D counted along it
T7 sequence (P13569 with tags, fused parts or gaps DEL508-508): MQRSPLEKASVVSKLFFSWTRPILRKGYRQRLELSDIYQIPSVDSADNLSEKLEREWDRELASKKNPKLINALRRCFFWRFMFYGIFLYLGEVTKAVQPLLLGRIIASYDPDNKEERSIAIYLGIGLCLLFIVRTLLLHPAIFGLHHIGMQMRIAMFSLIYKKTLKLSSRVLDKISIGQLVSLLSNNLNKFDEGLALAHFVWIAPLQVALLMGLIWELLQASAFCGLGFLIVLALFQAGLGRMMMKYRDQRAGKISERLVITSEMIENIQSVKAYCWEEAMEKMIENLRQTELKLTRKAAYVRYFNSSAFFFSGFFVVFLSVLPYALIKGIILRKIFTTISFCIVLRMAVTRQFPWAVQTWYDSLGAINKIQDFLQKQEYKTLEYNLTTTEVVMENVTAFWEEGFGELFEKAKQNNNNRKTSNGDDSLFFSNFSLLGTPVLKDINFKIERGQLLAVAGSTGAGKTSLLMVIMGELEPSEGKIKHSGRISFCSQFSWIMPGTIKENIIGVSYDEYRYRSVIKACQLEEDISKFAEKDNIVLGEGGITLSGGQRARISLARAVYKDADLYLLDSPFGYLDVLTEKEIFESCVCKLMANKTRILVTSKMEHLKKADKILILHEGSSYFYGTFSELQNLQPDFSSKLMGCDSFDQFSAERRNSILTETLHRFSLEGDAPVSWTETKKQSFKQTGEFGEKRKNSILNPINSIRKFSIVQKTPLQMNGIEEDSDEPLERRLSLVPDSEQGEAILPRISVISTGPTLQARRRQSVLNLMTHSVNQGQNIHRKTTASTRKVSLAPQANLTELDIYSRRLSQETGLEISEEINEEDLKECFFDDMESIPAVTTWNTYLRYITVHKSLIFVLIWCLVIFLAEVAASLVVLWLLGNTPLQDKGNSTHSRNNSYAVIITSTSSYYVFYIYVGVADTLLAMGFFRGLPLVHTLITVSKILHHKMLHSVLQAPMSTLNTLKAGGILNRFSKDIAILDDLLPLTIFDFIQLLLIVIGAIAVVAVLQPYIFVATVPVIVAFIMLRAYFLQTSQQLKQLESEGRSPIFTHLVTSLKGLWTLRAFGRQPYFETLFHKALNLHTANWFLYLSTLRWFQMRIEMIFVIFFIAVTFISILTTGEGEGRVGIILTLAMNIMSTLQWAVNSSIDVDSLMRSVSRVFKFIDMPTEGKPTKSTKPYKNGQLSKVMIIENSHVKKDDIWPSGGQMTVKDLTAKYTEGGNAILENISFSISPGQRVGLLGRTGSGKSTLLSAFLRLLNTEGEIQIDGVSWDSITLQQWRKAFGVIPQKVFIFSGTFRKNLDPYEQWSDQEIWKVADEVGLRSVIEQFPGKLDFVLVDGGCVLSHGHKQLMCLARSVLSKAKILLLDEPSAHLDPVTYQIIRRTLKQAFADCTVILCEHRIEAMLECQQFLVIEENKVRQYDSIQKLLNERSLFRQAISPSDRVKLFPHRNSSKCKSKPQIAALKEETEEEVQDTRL
T1 sequence (P13569 with tags, fused parts or gaps DEL508-508): as above
T6 sequence (P13569 whole entry G551D): as the sequence (P13569 whole entry S549N) above, with N549S, G551D counted along it

Row | EC50 [1] | EC50 [2] | EC50 [3] | EC50 [4] | EC50 [5] | EC50 [6, 9] | Structure (SMILES) | other results
1 | 14.4 nM | 196 nM | 89.3 nM | 97.7 nM | 116 nM | 1170 nM | CCCc1c[nH]nc1C(=O)Nc1sc2c(c1C(N)=O)CC(C)(C)OC2(C)C [Compound 71, N-(3-carbamoyl-5,5,7,7-tetramethyl-4H-thieno[2,3-c]pyran-2-yl)-4-propyl-1H-pyrazole-3-carboxamide] | 
2 |  |  | 82.2 nM |  |  |  | CC1(C)Cc2c(sc(NC(=O)c3ccnn3COP(=O)(O)O)c2C(N)=O)C(C)(C)O1 [Compound 92, [5-[(3-carbamoyl-5,5,7,7-tetramethyl-4H-thieno[2,3-c]pyran-2-yl)carbamoyl]pyrazol-1-yl]methyl dihydrogen phosphate] | 
3 | 30.1 nM | 345 nM | 67.6 nM | 672 nM | 147 nM | 541 nM | CC1(C)Cc2c(sc(NC(=O)c3n[nH]cc3C3=COCCO3)c2C(N)=O)C(C)(C)O1 [Compound 94, N-(3-carbamoyl-5,5,7,7-tetramethyl-4H-thieno[2,3-c]pyran-2-yl)-4-(2,3-dihydro-1,4-dioxin-5-yl)-1H-pyrazole-3-carboxamide] | 
4 | 2.84 nM | 140 nM | 19 nM | 58.4 nM | 24.4 nM | 1430 nM | CC(C)CC(O)C(=O)Nc1sc2c(c1C(N)=O)CC(C)(C)OC2(C)C (centres unmarked) [Compound 46, 2-[(2-hydroxy-4-methyl-pentanoyl)amino]-5,5,7,7-tetramethyl-4H-thieno[2,3-c]pyran-3-carboxamide] | 
5 | 24.5 nM | 291 nM |  | 81.4 nM | 106 nM | 1060 nM | CC1(C)Cc2c(sc(NC(=O)c3n[nH]cc3C3COCCO3)c2C(N)=O)C(C)(C)O1 (centres unmarked) [Compound 95, N-(3-carbamoyl-5,5,7,7-tetramethyl-4H-thieno[2,3-c]pyran-2-yl)-4-(1,4-dioxan-2-yl)-1H-pyrazole-3-carboxamide] | 
6 | 1.97 nM | 86.5 nM | 39.7 nM | 60.9 nM | 11.4 nM |  | CC(C)C(O)C(=O)Nc1sc2c(c1C(N)=O)CC(C)(C)OC2(C)C (single isomer, unassigned) [Compound 52, 2-[[2-hydroxy-3-methyl-butanoyl]amino]-5,5,7,7-tetramethyl-4H-thieno[2,3-c]pyran-3-carboxamide] | 
7 | 0.71 nM |  |  |  |  | 57.5 nM | CC1(C)Cc2c(sc(NC(=O)c3ccc(F)cc3O)c2C(N)=O)C(C)(C)O1 [Compound 21, 2-(4-fluoro-2-hydroxybenzamido)-5,5,7,7-tetramethyl-5,7-dihydro-4H-thieno[2,3-c]pyran-3-carboxamide] | EC50 ([7]; primary bronchial epithelial cells, CFTR ΔF508, several values in a cell = repeat determinations): 16.3 nM; EC50 ([8]; compounds of the invention, 96 well, forskolin 10.67 μM): 6.46 nM
8 |  |  |  |  |  |  | NC(=O)c1c(NC(=O)c2cc[nH]n2)sc2c1CCOC2 [E, N-(3-carbamoyl-5,7-dihydro-4H-thieno[2,3-c]pyran-2-yl)-1H-pyrazole-3-carboxamide, reference compound] | ΔIsc ([7]; TECC assay, compound at 50 nM (Table XV)): 0.1663 μA/cm^2; ΔIsc ([7]; TECC assay, compound at 50 nM (Table XVI)): 0.1663 μA/cm^2; Current increase ([7]; TECC assay, compound at 50 nM, difference between ΔIsc with compound and ΔIsc DMSO (baseline)): 0.4911 μA/cm^2; ΔIsc ([7]; TECC assay, compound at 100 nM (Table XVI)): −0.0318 μA/cm^2; ΔIsc ([7]; TECC assay, compound at 200 nM (Table XVI)): 0.5241 μA/cm^2; activity on the CFTR protein in TECC assay (ΔISC vs DMSO baseline) ([7]; at 3 μM, or 50 nM, or 50/100/200 nM): no such activity; EC50 ([8]; comparative compounds): 479 nM; EC50 ([6]; comparative compounds, HEK293 cells): 2900 nM
